Measurements published in US20250276955A1, “CORONAVIRUS MAIN PROTEASE INHIBITORS AND METHODS USING SAME” (Baylor College of Medicine, priority 2021, published 2025).
Converted amounts (≈) assume the structure as drawn. Where two headings read alike, the source gives them in different places.

Columns and labels:
[1] = Metabolic stability in mouse liver microsomes; format: in vitro ADME; conditions: 0.5 mg protein/mL, 2.0 μM compound, 1.0 mM NADPH
Experimental: (§1) The samples were collected at specific time-points 0, 30, and 60 min in duplicate. The reactions were terminated by adding an equivalent volume of ice-cold methanol and vortexed. […] Three μL of the supernatant was analyzed by UHPLC-Q Exactive Orbitrap MS (Thermo Fisher Scientific, USA) equipped with 50 mm×4.6 mm column (XDB C-18, Agilent Technologies, USA). The column temperature was maintained at 40° C. The flow rate was at 0.3 mL/min with a 30% mobile phase (acetonitrile containing 0.1% formic acid). Q Exactive MS was operated in positive mode with electrospray ionization. Ultra-pure nitrogen was applied as the sheath (45 arbitrary unit), auxiliary (10 arbitrary unit), sweep (1.0 arbitrary unit) and the collision gas. […] MS data were acquired from 80 to 1,200 Da in profile mode.

[2] = Metabolic stability in human liver microsomes; format: in vitro ADME; conditions: 0.5 mg protein/mL, 2.0 μM compound, 1.0 mM NADPH
Experimental: as §1

SARS-COV-2 M^pro-His6 = SARS-COV-2 M^pro-His6 (Severe acute respiratory syndrome coronavirus 2, UniProt P0DTD1); experiment: biochemical; format: biochemical
[3] = biological target: SARS-COV-2 M^pro (authentic N- and C-termini) (Severe acute respiratory syndrome coronavirus 2, UniProt P0DTD1); experiment: biochemical; format: biochemical; conditions: for M^pro Ki: 25 nM enzyme, 15 μM fluorescent peptide, Morrison equation, Inactive = less than 50% inhibition at 25 μM compound; for Ki,app: Table 5
Human Cathepsin B = biological target: T1, Human Cathepsin B (Homo sapiens, UniProt P07858); experiment: Cathepsin B assay; format: biochemical
T1 construct: purchased BPS Bioscience 79590
Experimental: A kit from BPS Bioscience (#79590) was used with adjustments to the manufacturer's protocol as follows: The activated enzyme was diluted 250-fold just before use, and the reaction was run at RT in black 96 half-area plates in a total reaction volume of 50 uL containing 0.01% Tween-20. Instead of measuring endpoints at 60 min the increase in fluorescence (Ex 360 nm, Em 460 nm) per second (RFU/s) was obtained from linear progress curves over 10 min. Fractional activities were calculated from reactions with no inhibitors. E-64 was used as a positive control.

[4] = Apparent solubility in PBS buffer; conditions: for solubility: PBS buffer with 2% DMSO, aqueous buffer, kinetic from dmso stock
[5] = biological target: SARS-CoV-2 main protease (M^pro) (Severe acute respiratory syndrome coronavirus 2, UniProt P0DTD1); experiment: Protein thermal shift stability assay (SYPRO Orange); format: binding; conditions: 50 μM compound; […]; 50 µM
HOVPro-Gi.1 = biological target: T2, HOVPro-Gi.1 (Norovirus, UniProt Q83883); experiment: Thermal shift, HOVPro-Gi.1; format: binding; conditions: 50 µM
T2 construct: HOVPro-Gi.1
T2 sequence (Q83883 1101-1281): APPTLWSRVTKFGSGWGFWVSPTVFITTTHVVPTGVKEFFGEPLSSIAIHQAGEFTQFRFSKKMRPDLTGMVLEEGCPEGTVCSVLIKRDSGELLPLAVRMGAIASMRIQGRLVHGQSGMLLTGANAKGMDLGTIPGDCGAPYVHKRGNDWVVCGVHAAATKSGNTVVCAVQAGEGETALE

HOVPro-Gii.4 = experiment: Thermal shift, HOVPro-Gii.4; format: binding; conditions: 50 µM
human thrombin = biological target: T3, human thrombin (Homo sapiens, UniProt P00734); experiment: Thrombin fluorescence assay; format: biochemical; conditions: fluorescence assay
T3 construct: purchased Sigma-Aldrich MAK243

[6] = tested on: SARS-COV-2 (USA_WA1/2020 isolate) in VERO E6 cells; experiment: Real-Time Cell Analysis (RTCA) assay of SARS-COV-2 replication; format: cell-based; conditions: VERO E6 cells, 75 h
[7] = Table 3, column a (footnote not given), read-out: Kiapp (nM)^a
[8] = Ki, app towards SARS-CoV-2 M^pro, athentic termini, authentic termini
[9] = Kiapp (nM)^b, Table 3, column b (footnote not given)
[10] = 25 nM enzyme, 15 μM fluorescent peptide, Morrison equation, Inactive = less than 50% inhibition at 25 μM compound
[11] = Table 3, column b (footnote not given), read-out: Kiapp (nM)^b
[12] = Table 3, column a (footnote not given)
[13] = Table 3, column b (footnote not given)

Cc1nnc2n1-c1ccc(Cl)cc1C(c1ccccc1)=NC2 [Alprazolam, reference compound]
MLM t1/2 (half-life) [1]: 296
HLM t1/2 (half-life) [2]: 832

CCC[C@H](NC(=O)c1cccc2nc(-c3cncc4ccccc34)n([C@H]3C[C@H](C(=O)NC)C3)c12)c1cccc(C(F)(F)F)c1 [CDD-1795]
Ki (SARS-COV-2 M^pro-His6; [7]): 29.4 ± 4.3 nM
Ki [3, 8]: 35.2 nM
Ki [3, 9]: 35.2 ± 4.9 nM
Human Cathepsin B, Fractional Remaining Activity (Human Cathepsin B): 1.07
solubility [4]: 50.4 µM (≈ 30.2 µg/mL)

COc1cc(-c2cccc3[nH]ncc23)ccc1OCC(=O)N(C)C [CDD-1793, 2-(4-(1H-indazol-4-yl)-2-methoxyphenoxy)-N,N-dimethylacetamide]
M^pro-His Ki (SARS-COV-2 M^pro-His6; [10]): Inactive
M^pro inhibition (in words) [3]: completely abolished the activity
M^pro Ki [3]: Inactive
Ki,app [3]: Inactive

CNC(=O)[C@H]1C[C@H](n2c(-c3cncc4ccccc34)nc3cccc(C(=O)NC(C)c4ccc(C(F)(F)F)cc4)c32)C1 (some centres unmarked) [CDD-1829]
Ki (SARS-COV-2 M^pro-His6; [7]): 45.7 ± 3.7 nM
Ki [3, 11]: 47.9 ± 4.7 nM

CNC(=O)CCCn1c(-c2ccc3cnccc3c2)nc2cccc(C(=O)N[C@@H](C)c3ccc4ccccc4c3)c21 [CDD-1884]
Kiapp (nM)^a (SARS-COV-2 M^pro-His6; [12]): Inactive
Kiapp (nM)^b [3, 13]: Inactive

CCC[C@H](NC(=O)c1cccc2nc(-c3cncc4ccccc34)n(C3CCNCC3)c12)c1ccc(C(F)(F)F)cc1 [CDD-1818]
Ki (SARS-COV-2 M^pro-His6; [7]): 1470 ± 152 nM
Ki [3, 11]: 1710 ± 128 nM

CCCC(NC(=O)c1cccc2nc(-c3cncc4ccccc34)n([C@H]3C[C@H](C(=O)NC)C3)c12)c1ccc(C(F)(F)F)cc1 (some centres unmarked) [CDD-1732]
ΔTm of Mpro at 50 μM compound conc. [5]: 0.61 °C
ΔTm of HOVPro-Gi.1 at 50 μM compound conc. (HOVPro-Gi.1): −0.82 °C
ΔTm of HOVPro-Gii.4 at 50 μM compound conc. (HOVPro-Gii.4): −1.24 °C
Thrombin inhibition (human thrombin): None
Measured apparent solubility in PBS buffer (2% DMSO) ([4]; PBS buffer, 2% DMSO): 26.9 µM

COc1cc(-c2cccc3[nH]ncc23)cc(C(C)=O)c1OCC(=O)N(C)C [CDD-1883]
M^pro-His Ki (SARS-COV-2 M^pro-His6; [10]): Inactive
M^pro Ki [3]: Inactive

O=C1CCOc2ccc(-c3cccc4[nH]ncc34)cc21 [CDD-2037]
M^pro-His Ki (SARS-COV-2 M^pro-His6; [10]): Inactive
M^pro Ki [3]: Inactive

CCC[C@H](NC(=O)c1cccc2nc(-c3cccnc3)n([C@H]3C[C@H](C(=O)NC)C3)c12)c1ccc(C(F)(F)F)cc1 [CDD-1831]
Kiapp (nM)^a (SARS-COV-2 M^pro-His6): Inactive
Kiapp (nM)^b [3]: Inactive

C[C@H](NC(=O)c1cccc2nc(-c3cncc4ccccc34)n(CCCC(=O)O)c12)c1ccc2ccccc2c1 [CDD-1972]
Ki [3, 11]: 87.9 ± 8.4 nM

CCC[C@H](NC(=O)c1cccc2nc(-c3cncc4ccccc34)n(CCCC(=O)NC)c12)c1ccc(C(F)(F)F)cc1 [CDD-1830]
Ki (SARS-COV-2 M^pro-His6; [7]): 5.6 ± 0.5 nM
Ki [3, 11]: 6.5 ± 1 nM

COC(=O)c1cc(-c2cccc3[nH]ncc23)cc(OC)c1OCC(=O)N(C)C [CDD-1982]
M^pro-His Ki (SARS-COV-2 M^pro-His6; [10]): Inactive
M^pro Ki [3]: Inactive

CNC(=O)[C@H]1C[C@H](n2c(-c3cncc4ccccc34)nc3cccc(C(=O)N[C@@H](C)c4ccccc4)c32)C1 [CDD-1841]
Ki (SARS-COV-2 M^pro-His6; [7]): 571 ± 72.7 nM
Ki [3, 11]: 565 ± 55.3 nM

CNC(=O)[C@H]1C[C@H](n2c(-c3cncc4ccccc34)nc3cccc(C(=O)NC(C)C)c32)C1 [CDD-1842]
Kiapp (nM)^a (SARS-COV-2 M^pro-His6): Inactive
Kiapp (nM)^b [3]: Inactive

CCC[C@H](NC(=O)c1cccc2nc(-c3cncc4ccccc34)n([C@H]3C[C@H](C(=O)NC)C3)c12)c1ccccc1 [CDD-1843]
Kiapp (nM)^a (SARS-COV-2 M^pro-His6; [12]): Inactive
Kiapp (nM)^b [3, 13]: Inactive

CN(C)C(=O)COc1ccc(-c2cccc3[nH]ncc23)cc1C#N [CDD-2038]
M^pro-His Ki (SARS-COV-2 M^pro-His6; [10]): Inactive
M^pro Ki [3]: Inactive

CNC(=O)CCCn1c(-c2ccnc3ccccc23)nc2cccc(C(=O)N[C@@H](C)c3ccc4ccccc4c3)c21 [CDD-1906]
Kiapp (nM)^a (SARS-COV-2 M^pro-His6; [12]): Inactive
Kiapp (nM)^b [3, 13]: Inactive

CCC[C@H](NC(=O)c1cccc2nc(-c3cncc4ccccc34)n(CCCC(=O)NC)c12)c1ccc(C)cc1 [CDD-1934]
Ki [3, 11]: 27.4 ± 2.4 nM

COc1cc(-c2cccc3c2cnn3C)cc(C=O)c1OCC(=O)N(C)C [CDD-1847, 2-(2-formyl-6-methoxy-4-(1-methyl-1H-indazol-4-yl)phenoxy)-N,N-dimethylacetamide]
M^pro-His Ki (SARS-COV-2 M^pro-His6; [10]): Inactive
M^pro inhibition (in words) [3]: completely lost activity
M^pro Ki [3]: Inactive
prevention of SARS-COV-2 induced cell death (in words) [6]: unable to prevent cell death

COc1cc(-c2cccc3[nH]ncc23)cc(C(=O)CO)c1OCC(=O)N(C)C [CDD-1886]
Ki (SARS-COV-2 M^pro-His6; 25 nM enzyme, 15 μM fluorescent peptide, Morrison equation, Inactive = less than 50% inhibition at 25 μM compound, read-out: M^pro-His Ki): 15700 ± 1200 nM
decrease of M^pro inhibition relative to CDD-1713 [3]: greater than 100 fold
Ki ([3]; read-out: M^pro Ki): 21200 ± 1500 nM

CCC[C@H](NC(=O)c1cccc2nc(-c3cncc4ccccc34)n([C@H]3CC[C@H](C(=O)NC)C3)c12)c1ccc(C(F)(F)F)cc1 [CDD-1790]
Ki (SARS-COV-2 M^pro-His6; [7]): 621 ± 46 nM
Ki [3, 8]: 663 nM
Ki [3, 11]: 663 ± 66 nM
solubility [4]: 52.1 µM (≈ 32 µg/mL)

COc1cc(-c2cccc3[nH]ncc23)cc(CO)c1OCC(=O)N(C)C [CDD-1776]
M^pro-His Ki (SARS-COV-2 M^pro-His6; [10]): Inactive
M^pro inhibition (in words) [3]: completely abolished the activity
M^pro Ki [3]: Inactive
Ki,app [3]: Inactive

CCOC(=O)/C=C/c1cc(-c2cccc3[nH]ncc23)cc(OC)c1OCC(=O)N(C)C [CDD-1971]
M^pro-His Ki (SARS-COV-2 M^pro-His6; [10]): Inactive
M^pro Ki [3]: Inactive

CNC(=O)CCCn1c(-c2cccc3ccccc23)nc2cccc(C(=O)N[C@@H](C)c3ccc4ccccc4c3)c21 [CDD-1885]
Kiapp (nM)^a (SARS-COV-2 M^pro-His6; [12]): Inactive
Kiapp (nM)^b [3, 13]: Inactive

CCC[C@H](NC(=O)c1cccc2nc(-c3cncc4ccccc34)n(C3CCC3)c12)c1ccc(C(F)(F)F)cc1 [CDD-1806]
Ki (SARS-COV-2 M^pro-His6): 165 ± 12.9 nM
Ki [3, 8]: 137 nM
Ki [3, 9]: 137 ± 11.6 nM
Human Cathepsin B, Fractional Remaining Activity (Human Cathepsin B): 0.94
solubility [4]: 0.1 µM (≈ 0.0543 µg/mL)

CNC(=O)CCCn1c(-c2cncc3ccccc23)nc2cccc(C(=O)NCc3ccc4ccccc4c3)c21 [CDD-1925]
Ki (SARS-COV-2 M^pro-His6; [7]): 51.3 ± 7.5 nM
Ki [3, 11]: 42.5 nM

CNC(=O)CCCn1c(-c2ccc(N)nc2)nc2cccc(C(=O)N[C@@H](C)c3ccc4ccccc4c3)c21 [CDD-1926]
Kiapp (nM)^a (SARS-COV-2 M^pro-His6; [12]): Inactive
Kiapp (nM)^b [3, 13]: Inactive

CCC[C@H](NC(=O)c1cccc2nc(-c3cncc4ccccc34)n(C(C)C)c12)c1ccc(C(F)(F)F)cc1 [CDD-1804]
Kiapp (nM)^a (SARS-COV-2 M^pro-His6; [12]): Inactive
Kiapp (nM)^b [3, 13]: Inactive

CNC(=O)CCCn1c(-c2ccc3cccnc3n2)nc2cccc(C(=O)N[C@@H](C)c3ccc4ccccc4c3)c21 [CDD-1905]
Kiapp (nM)^a (SARS-COV-2 M^pro-His6; [12]): Inactive
Kiapp (nM)^b [3, 13]: Inactive

CNC(=O)CCCn1c(-c2cnccc2C)nc2cccc(C(=O)N[C@@H](C)c3ccc4ccccc4c3)c21 [CDD-1924]
Ki [3, 11]: 426 ± 46.4 nM
